Laboratory results taken from the supplement of paper PMC10307832.

Columns and labels:
Assay in all cases: relative viability (nuclei count vs DMSO), 5 days (fraction); higher = more cells survive
Doxorubicin + Pemetrexed = compound: COc1cccc2c1C(=O)c1c(O)c3c(c(O)c1C2=O)C[C@@](O)(C(=O)CO)C[C@@H]3O[C@H]1C[C@H](N)[C@H](O)[C@H](C)O1 [Doxorubicin] + Nc1nc2[nH]cc(CCc3ccc(C(=O)N[C@@H](CCC(=O)O)C(=O)O)cc3)c2c(=O)[nH]1 [Pemetrexed] (partner 0.2 µM)
In short: (§1)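 Relative viability was taken as the ratio of nuclei in treated wells to nuclei in vehicle wells. Lung cancer cell lines in 1536-well plates received compounds by pin tool one day after seeding, either one drug alone or a fixed anchor-drug dose plus five library-drug doses (not always all listed) in √10 steps. Nuclei were counted on 4× images after 5 days of treatment, and values are medians of duplicate plates.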

BAY61-3606 + OSI-027 = compound: COC1=C(C=C(C=C1)C2=CC3=NC=CN3C(=N2)NC4=C(C=CC=N4)C(=O)N)OC [BAY61-3606] + COc1cccc2cc(-c3nc([C@H]4CC[C@H](C(=O)O)CC4)n4ncnc(N)c34)[nH]c12 [OSI-027] (partner 0.5 µM)
In short: as §1

Doxorubicin = compound: COc1cccc2c1C(=O)c1c(O)c3c(c(O)c1C2=O)C[C@@](O)(C(=O)CO)C[C@@H]3O[C@H]1C[C@H](N)[C@H](O)[C@H](C)O1 [Doxorubicin]
In short: (§2)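 In 1536-well plates, lung cancer cell lines rested overnight at 37 °C before five library-drug doses (not always all listed), √10 apart, were pinned onto vehicle-anchored plates. Nuclei were counted with MetaXpress from 4× Hoechst images taken after 5 days without medium change. Viability compares treated-well with vehicle-well nuclei as a median over plates, and plates needed control CV below 25% plus at least one doubling to pass.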

BAY61-3606 = compound: COC1=C(C=C(C=C1)C2=CC3=NC=CN3C(=N2)NC4=C(C=CC=N4)C(=O)N)OC [BAY61-3606]
In short: as §2

| Cell Line | relative viability (Doxorubicin + Pemetrexed; first compound 0.001 µM) | relative viability (Doxorubicin + Pemetrexed; first compound 0.003162 µM) | relative viability (Doxorubicin + Pemetrexed; first compound 0.01 µM) | relative viability (Doxorubicin + Pemetrexed; first compound 0.03162 µM) | relative viability (Doxorubicin + Pemetrexed; first compound 0.1 µM) | relative viability (BAY61-3606 + OSI-027; first compound 0.02 µM) | relative viability (BAY61-3606 + OSI-027; first compound 0.06325 µM) | relative viability (BAY61-3606 + OSI-027; first compound 0.2 µM) | relative viability (BAY61-3606 + OSI-027; first compound 0.6325 µM) | relative viability (BAY61-3606 + OSI-027; first compound 2 µM) | relative viability (Doxorubicin; 0.001 µM) | relative viability (Doxorubicin; 0.003162 µM) | relative viability (Doxorubicin; 0.01 µM) | relative viability (Doxorubicin; 0.03162 µM) | relative viability (Doxorubicin; 0.1 µM) | relative viability (BAY61-3606; 0.02 µM) | relative viability (BAY61-3606; 0.06325 µM) | relative viability (BAY61-3606; 0.2 µM) | relative viability (BAY61-3606; 0.6325 µM) | relative viability (BAY61-3606; 2 µM) |
| --- | --- | --- | --- | --- | --- | --- | --- | --- | --- | --- | --- | --- | --- | --- | --- | --- | --- | --- | --- | --- |
| NCI-H3122 | 0.203 | 0.208 | 0.334 | 0.194 | 0.174 | 1.02 | 0.922 | 0.891 | 1.27 | 0.847 | 0.946 | 1.01 | 0.908 | 0.876 | 0.92 | 1.02 | 1 | 0.985 | 1.01 | 0.961 |
| PC-3 [JPC-3] | 1.2 | 1.12 | 1.15 | 1.05 | 0.663 |  | 0.756 | 0.711 | 0.787 | 0.704 | 1.08 | 1.05 | 1.04 | 0.998 | 0.982 | 1.04 | 1 | 1 | 1.02 | 0.939 |
| PC-14 | 0.139 | 0.135 | 0.118 | 0.0995 | 0.0845 | 0.786 | 0.787 | 0.746 | 1.24 | 0.522 | 0.974 | 1.05 | 1.01 | 0.789 | 0.52 | 1.07 | 1.04 | 0.916 | 0.992 | 0.877 |
| RERF-LC-KJ | 0.458 | 0.496 | 0.418 | 0.39 | 0.382 | 0.605 | 0.533 | 0.573 | 0.621 | 0.379 | 0.986 | 1.04 | 0.986 | 0.713 | 0.904 | 1.04 | 1.03 | 0.93 | 1.06 | 0.791 |
| SK-LU-1 | 0.929 | 1.08 | 0.903 | 0.601 | 0.513 | 0.357 | 0.366 | 0.317 | 0.285 | 0.227 | 1 | 1.05 | 0.987 | 0.798 | 0.654 | 1.08 | 1.04 | 1.04 | 1.06 | 0.694 |
| SK-MES-1 | 0.926 | 0.899 | 0.872 | 0.291 | 0.234 | 0.604 | 0.674 | 0.56 | 0.706 | 0.405 | 0.997 | 1.06 | 0.906 | 0.594 | 0.542 | 1.02 | 0.994 | 0.974 | 1.06 | 0.891 |
| SW 900 |  | 0.461 | 0.465 | 0.498 | 0.412 | 0.616 | 0.529 | 0.612 | 0.747 | 0.427 | 0.671 | 0.992 | 0.774 | 0.665 | 0.404 | 0.895 | 0.762 | 0.678 | 0.937 | 0.813 |
| SW 1573 | 0.869 | 0.807 | 0.263 | 0.144 | 0.105 | 0.613 | 0.552 | 0.51 | 0.63 | 0.325 | 0.876 | 0.914 | 0.539 | 0.364 | 0.292 | 1.04 | 1.03 | 0.905 | 1 | 0.659 |
